According to patent US4868207A, “Bis (methylenedioxy) biphenyl compounds useful for the treatment of liver diseases” (priority 1988, dated 1989):
Entries after “also recorded” stand apart in the source; their conditions may differ.

What was measured:
Type in all cases: in vivo
male kunming strain mice = assay: Acute toxicity; settings: 3 g/20 ml/kg and 6 g/20 ml/kg, oral
Description: Ten male kunming strain mice weighing 18-20 g were used, and starved overnight. Compound 1 was suspened in 0.2% CMC-Na, and 5 mice were given orally compound 1 in a dose of 3 g/20 ml/kg. The other 5 mice were given 6 g/20 ml/kg.

[1] = tested on: thioacetamide-intoxicated mice; assay: Effect on SGPT, SGOT and liver triglyceride levels in thioacetamide-intoxicated mice; settings: for Liver triglyceride / SGOT / SGPT: oral; for Liver triglyceride: control 104 ± 35; for SGOT / SGPT: ± SD; for SGOT: control 1174 ± 435, Compound 1 P < 0.001; for SGPT: control 2365 ± 1045, Compound 1 P < 0.05
From the text: (§1) Throughout the following experiments, male mice weighing 18-22 g were used, and unless otherwise indicated, the compound of the present invention [6-methoxycarbonyl-6'-hydroxymethyl-2,3,2',3'-bis(methylenedioxy)-4,4'-dimethoxybiphenyl (hereinafter referred to as "Compound 1")]]and DDB of a comparative drug are each suspended in 2% of Tween-80 before administered orally.
(§2) Each group consisted of nine mice. The treated groups of mice were given three doses of Compound 1 twice at an interval of 8 hours on the first day, while one group was given corresponding volume of 2% of Tween-80 as control. At 4 p.m. of the second day, all mice were given i.p. 10 ml/kg of 0.1% of carbon tetrachloride in peanut oil. After a 16 hour fasting, all mice were sacrificed by decapitation. Serum transaminase (SGPT, SGOT) levels were determined.
(D) Effect on SGPT, SGOT and liver triglyceride levels in thioacetamide-intoxicated mice (9 mice per group)
Each group consisted of nine mice. The procedure of this experiment was just the same as mentioned in carbon tetrachloride-hepatotoxicity test. Only 50 mg/kg of thioacetamide was instread of carbon tetrachloride.

[2] = tested on: mortality induced by acetaminophen in mice; assay: Effect on mortality induced by acetaminophen in mice; settings: 200 mg/kg
From the text: as §1
(C) Effect on mortality induced by acetaminophen in mice (14 mice per group)
Each group consisted of 14 mice. The procedure of the treatment was the same as mentioned in the item (B). All mice were given i.p. 400 mg/kg of acetaminophen 24 hours after the second dose of Compound 1. Survival numbers of mice were recorded within 5 days.

drug metabolism enzyme = assay: Effect on pentobarbital sleeping time in mice; settings: for Sleeping time: 200 mg/kg oral, ± SD, control 49 ± 22
Description: (E) Effect on pentobarbital sleeping time in mice (10 mice per group)
Three groups of 10 mice were used in this experiment. […] The mice of control were given physiological saline. The interval between the lose and return of righting reflex of each mouse was recorded as sleeping time.

[3] = tested on: acetaminophen-intoxicated mice; assay: Effect on SGPT, SGOT and liver triglyceride levels in acetaminophen-intoxicated mice; settings: for Liver triglyceride / SGPT / SGOT: oral; for Liver triglyceride: control 57.4 ± 18.3; for SGPT / SGOT: ± SD; for SGPT: control 1504 ± 330; for SGOT: control 1695 ± 390
From the text: as §1
(B) Effect on SGPT, SGOT and liver triglyceride levels in acetaminophen-intoxicated mice
Thirty six mice were divided equally into 4 groups. On the first day, one group was given 2% of Tween-80 as control, while other groups were each given two doses of Compound 1 at an interval of 8 hours. All mice were injected i.p. 110 mg/kg of acetaminophen 16 hours after the last administration of Compound 1. After fasting overnight, all mice were decapited. SGPT, SGOT and liver triglyceride levels were determined.

[4] = tested on: carbon tetrachloride-intoxicated mice; assay: Effect on SGPT and SGOT levels in carbon tetrachloride-intoxicated mice; settings: for SGOT / SGPT: oral, ± SD; for SGOT: control 2087 ± 131; for SGPT: control 3110 ± 50
From the text: as §1
Effect on SGPT and SGOT levels in carbon tetrachloride-intoxicated mice (9 mice per group)
as §2

[5] = 1 hr before pentobarbital 50 mg/kg i.p., P DDB <0.05, Compound 1 <0.001
[6] = 24 hrs before pentobarbital 50 mg/kg i.p., P DDB <0.01, Compound 1 <0.001
[7] = 200 mg/kg (DDB 200 mg/mg [sic])
[8] = 200 mg/kg (DDB 200 mg/mg [sic]), Compound 1 P < 0.001
[9] = 200 mg/kg (DDB 200 mg/mg [sic]), DDB P < 0.05, Compound 1 P < 0.001
[10] = 200 mg/kg, DDB P < 0.05, Compound 1 P < 0.001

SMILES: COC(=O)c1cc(OC)c2c(c1-c1c(CO)cc(OC)c3c1OCO3)OCO2 [Compound 1, 6-methoxycarbonyl-6'-hydroxymethyl-2,3,2',3'-bis(methylenedioxy)-4,4'-dimethoxybiphenyl]
- death (male kunming strain mice; within 2 weeks): no death occured
- change of the behavior of the mice (male kunming strain mice; within 48 hours): No noticeable change of the behavior of the mice
- Liver triglyceride ([1]; 200 mg/kg): 115 ± 31 mg/kg
- SGOT ([1]; 200 mg/kg): 565 ± 130 u/dl
- SGPT ([1]; 200 mg/kg): 1430 ± 550 u/dl
- lowering SGPT and SGOT levels elevated by thioacetamide ([1]; 200 mg/kg, result in words): effective in lowering SGPT and SGOT levels
- protective effect against hepatotoxicity induced by thioacetamide ([1]; result in words): protective effect against hepatotoxicity
- Number of survival ([2]; 400 mg/kg acetaminophen i.p., of 14 mice, within 5 days, control 3): 11
- Mortality ([2]; 400 mg/kg acetaminophen i.p., within 5 days, control 78): 21%
- mortality of mice induced by acetaminophen ([2]; result in words): significantly decreased
- Sleeping time (drug metabolism enzyme; [5]): 214 ± 85 min
- Sleeping time (drug metabolism enzyme; [6]): 20 ± 8 min
- pentobarbital sleeping time (drug metabolism enzyme; 200 mg/kg, one hour before pentobarbital, result in words): significantly prolonged
- pentobarbital sleeping time (drug metabolism enzyme; 24 hours prior to pentobarbital, result in words): markedly shortened
- action on drug metabolism enzyme (drug metabolism enzyme; indirectly indicated by sleeping time, result in words): inductive action on drug metabolism enzyme; also recorded: increases the activity of drug metabolism enzymes
- Liver triglyceride ([3]; 100 mg/kg): 52.0 ± 13.8 mg/kg
- SGPT ([3]; 100 mg/kg, P < 0.05): 935 ± 660 u/dl
- SGOT ([3]; 100 mg/kg, P < 0.05): 1000 ± 651 u/dl
- Liver triglyceride [3, 7]: 50.0 ± 27.6 mg/kg
- SGPT [3, 8]: 550 ± 495 u/dl
- SGOT [3, 9]: 565 ± 522 u/dl
- lowering SGPT and SGOT levels elevated by acetaminophen ([3]; 200 mg/kg, 100 mg/kg, result in words): effective in lowering SGPT and SGOT levels
- liver lesions such as inflammation and necrosis ([3]; result in words): ameliorated
- liver triglyceride level elevated by acetaminophen ([3]; result in words): reduced
- protective effect against hepatotoxicity induced by acetaminophen ([3]; result in words): protective effect against hepatotoxicity
- SGOT ([4]; 50 mg/kg, 9 mice per group): 1826 ± 203 u/dl
- SGPT ([4]; 50 mg/kg, 9 mice per group): 2523 ± 273 u/dl
- SGOT ([4]; 100 mg/kg): 1739 ± 192 u/dl
- SGPT ([4]; 100 mg/kg, Compound 1 P < 0.01): 2126 ± 371 u/dl
- SGPT level ([4]; 100 mg/kg, result in words): markedly decreased
- SGOT ([4]; 200 mg/kg, Compound 1 P < 0.01): 1362 ± 148 u/dl
- SGPT [4, 10]: 947 ± 236 u/dl
- SGOT level vs carbon tetrachloride control ([4]; 200 mg/kg, result in words): significantly lowered
- SGPT level vs carbon tetrachloride control ([4]; 200 mg/kg, result in words): significantly lowered
- protection against carbon tetrachloride hepatotoxicity ([4]; result in words): protective effect against hepatotoxicity; also recorded: effective in protection against carbon tetrachloride hepatotoxicity

SMILES: COC(=O)c1cc(OC)c2c(c1-c1c(C(=O)OC)cc(OC)c3c1OCO3)OCO2 [DDB, dimethyl 4,4'-dimethoxy-5,6,5',6'-dimethylenedioxybiphenyl-2,2'-dicarboxylate, reference compound]
- Liver triglyceride ([1]; 200 mg/kg): 135 ± 46 mg/kg
- SGOT ([1]; 200 mg/kg): 1217 ± 261 u/dl
- SGPT ([1]; 200 mg/kg): 2035 ± 770 u/dl
- Sleeping time (drug metabolism enzyme; [5]): 91 ± 57 min
- Sleeping time (drug metabolism enzyme; [6]): 23 ± 10 min
- Liver triglyceride [3, 7]: 56.2 ± 27.6 mg/kg
- SGPT [3, 8]: 1100 ± 660 u/dl
- SGOT [3, 9]: 1130 ± 651 u/dl
- SGOT ([4]; 50 mg/kg, 9 mice per group): 1922 ± 174 u/dl
- SGPT ([4]; 50 mg/kg, 9 mice per group): 2701 ± 243 u/dl
- SGOT ([4]; 100 mg/kg): 2019 ± 130 u/dl
- SGPT ([4]; 100 mg/kg, Compound 1 P < 0.01): 2965 ± 221 u/dl
- SGOT ([4]; 200 mg/kg, Compound 1 P < 0.01): 1700 ± 185 u/dl
- SGPT [4, 10]: 2303 ± 318 u/dl
